Experimental data taken from patent US10344024B2, “Compounds as ROR gamma modulators” (Glenmark Pharmaceuticals S.A., priority 2015, dated 2019).

Molecular target: T1, GST-tagged ROR gamma ligand binding domain (LBD) (Homo sapiens, UniProt P51449)
T1 construct: purchased Invitrogen
T1 sequence (P51449 269-508 limits assumed): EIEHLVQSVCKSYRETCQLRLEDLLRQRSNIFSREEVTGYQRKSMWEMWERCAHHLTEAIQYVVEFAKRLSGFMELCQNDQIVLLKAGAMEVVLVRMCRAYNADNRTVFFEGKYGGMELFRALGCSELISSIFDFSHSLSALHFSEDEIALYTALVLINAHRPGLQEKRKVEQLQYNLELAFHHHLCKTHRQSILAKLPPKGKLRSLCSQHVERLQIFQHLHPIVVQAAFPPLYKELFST
Assay: TR-FRET assay for ROR gamma (LanthaScreen co-activator peptide recruitment)
Type: biochemical
Conditions: for inhibition at 1 µM: compound concentration 1 μM; for inhibition at 1 µM / inhibition at 10 µM: TR-FRET ratio 520/495, percent of control; for inhibition at 10 µM: compound concentration 10 μM; for IC50: from dose response curve, nonlinear regression, read-out: IC50 range
Text: The compounds described herein were screened for ROR gamma modulator activity using the TR-FRET assay (LanthaScreen™ available from Invitrogen of Carlsbad, Calif.) as described in JBC 2011, 286, 26: 22707-10; and Drug Metabolism and Disposition 2009, 37, 10: 2069-78.
Binding of the co-activator peptide, causes an increase in the TR-FRET signal while binding of an antagonist decreases the recruitment of the co-activator peptide, causing a decrease in the TR-FRET signal compared to control with no compound. The assay was performed using a two-step procedure, pre-incubation step with the compound followed by the detection step on addition of the anti-GST tagged terbium (Tb) and fluorescein tagged fluorophores as the acceptor.
Test compounds or reference compounds such as T0901317 (Calbiochem) were dissolved in dimethylsulfoxide (DMSO) to prepare 10.0 mM stock solutions and diluted to the desired concentration. The final concentration of DMSO in the reaction was 4% (v/v). The assay mixture was prepared by mixing 10 nM of the GST-tagged ROR gamma ligand binding domain (LBD) in the assay buffer containing 25 mM HEPES (pH 7.4), 100 mM NaCl, 5 mM DTT and 0.01% BSA with or without the desired concentration of the compound. The reaction was incubated at 22° C. for 1 hour. The pre-incubation step was terminated by addition of the detection mixture containing 300 nM Fluorescein-D22 co-activator peptide and 10 nM lantha screen Tb-anti GST antibody into the reaction mixture.
After shaking for 5 minutes the reaction was further incubated for 1 hour at room temperature and read at 4° C. on an Infinite F500 reader as per the kit instructions (Invitrogen). The inhibition of test compound was calculated based on the TR-FRET ratio of 520/495. The activity was calculated as a percent of control reaction. IC50 values were calculated from dose response curve by nonlinear regression analysis using GraphPad Prism software.

| SMILES | inhibition at 1 µM [%] | inhibition at 10 µM [%] | IC50 [nM] |
| --- | --- | --- | --- |
| CCC(F)(F)c1ccc(CC(=O)Nc2ccc(-c3nccnc3-c3ccc(Cl)cc3)cc2)cc1 [Example 1, N-(4-(3-(4-chlorophenyl)pyrazin-2-yl)phenyl)-2-(4-(1,1-difluoropropyl)phenyl) acetamide] | 80.9 | 81.5 | < 50 |
| CC(O)C(F)(F)c1ccc(CC(=O)Nc2ccc(-c3nccnc3-c3ccc(Cl)cc3)cc2)cc1 (centres unmarked) [Example 2, N-(4-(3-(4-chlorophenyl)pyrazin-2-yl)phenyl)-2-(4-(1,1-difluoro-2-hydroxypropyl)phenyl)acetamide] | 76.1 | 82.7 | < 50 |
| COCC(F)(F)c1ccc(CC(=O)Nc2ccc(-c3nccnc3-c3ccc(Cl)cc3)cc2)cc1 [Example 3, N-(4-(3-(4-Chlorophenyl)pyrazin-2-yl)phenyl)-2-(4-(1,1-difluoro-2-methoxyethyl)phenyl)acetamide] | 74 | 84.8 | 50 to 100 |
| CC(O)C(F)(F)c1ccc(CC(=O)Nc2ccc(-c3nccnc3-c3cccc(Cl)c3)cc2)cc1 (centres unmarked) [Example 4, N-(4-(3-(3-Chlorophenyl)pyrazin-2-yl)phenyl)-2-(4-(1,1-difluoro-2-hydroxypropyl)phenyl)acetamide] | 60.7 | 77.8 | > 500 |
| CCC(F)(F)c1ccc(CC(=O)Nc2ccc(-c3nccnc3-c3ccccc3Cl)cc2)cc1 [Example 5, N-(4-(3-(2-Chlorophenyl)pyrazin-2-yl)phenyl)-2-(4-(1,1-difluoropropyl)phenyl)acetamide] | 81.5 | 84.4 | < 50 |
| CCC(F)(F)c1ccc(CC(=O)Nc2ccc(-c3nccnc3-c3ccc(Cl)cc3F)cc2)cc1 [Example 6, N-(4-(3-(4-Chloro-2-fluorophenyl)pyrazin-2-yl)phenyl)-2-(4-(1,1-difluoropropyl)phenyl)acetamide] | 87.4 | 86.4 | < 50 |
| CCC(F)(F)c1ccc(CC(=O)Nc2ccc(-c3ncccc3-c3ccc(Cl)cc3)cc2)cc1 [Example 7, N-(4-(3-(4-Chlorophenyl)pyridin-2-yl)phenyl)-2-(4-(1,1-difluoropropyl)phenyl)acetamide] | 83 | 86.2 | < 50 |
| CC(O)C(F)(F)c1ccc(CC(=O)Nc2ccc(-c3nccnc3-c3ccc(F)cc3)cc2)cc1 (centres unmarked) [Example 8, 2-(4-(1,1-Difluoro-2-hydroxypropyl)phenyl)-N-(4-(3-(4-fluorophenyl)pyrazin-2-yl)phenyl)acetamide] | 73.6 | 85.3 | 100 to 500 |
| CC(O)C(F)(F)c1ccc(CC(=O)Nc2ccc(-c3nccnc3-c3ccc(F)c(F)c3)cc2)cc1 (centres unmarked) [Example 9, 2-(4-(1,1-Difluoro-2-hydroxypropyl)phenyl)-N-(4-(3-(3,4-difluorophenyl)pyrazin-2-yl)phenyl)acetamide] | 55.2 | 72.1 | > 500 |
| CCC(F)(F)c1ccc(CC(=O)Nc2ccc(-c3nccnc3-c3ccc(F)cc3F)cc2)cc1 [Example 10, N-(4-(3-(2,4-Difluorophenyl)pyrazin-2-yl)phenyl)-2-(4-(1,1-difluoropropyl)phenyl)acetamide] | 78.2 | 83 | 50 to 100 |
| CCC(F)(F)c1ccc(CC(=O)Nc2ccc(-c3nccnc3-c3ccccc3F)cc2)cc1 [Example 11, 2-(4-(1,1-Difluoropropyl)phenyl)-N-(4-(3-(2-fluorophenyl)pyrazin-2-yl)phenyl)acetamide] | 78.8 | 83.8 | < 50 |
| CCC(F)(F)c1ccc(CC(=O)Nc2ccc(-c3nccnc3-c3ccc(C(F)(F)F)cc3)cc2)cc1 [Example 12, 2-(4-(1,1-Difluoropropyl)phenyl)-N-(4-(3-(4-(trifluoromethyl)phenyl)pyrazin-2-yl)phenyl)acetamide] | 85.6 | 83 | < 50 |
| CCC(F)(F)c1ccc(CC(=O)Nc2ccc(-c3nccnc3-c3ccc(C)cc3)cc2)cc1 [Example 13, 2-(4-(1,1-Difluoropropyl)phenyl)-N-(4-(3-(p-tolyl)pyrazin-2-yl)phenyl)acetamide] | 82.7 | 84.4 | < 50 |
| CCC(F)(F)c1ccc(CC(=O)Nc2ccc(-c3ncccc3-c3ccc(F)cc3)cc2)cc1 [Example 14, 2-(4-(1,1-Difluoropropyl)phenyl)-N-(4-(3-(4-fluorophenyl)pyridin-2-yl)phenyl)acetamide] | 74.4 | 83.8 | 100 to 500 |
| CCC(F)(F)c1ccc(CC(=O)Nc2ccc(-c3nccnc3-c3ccccc3)cc2)cc1 [Example 15, 2-(4-(1,1-Difluoropropyl)phenyl)-N-(4-(3-phenylpyrazin-2-yl)phenyl)acetamide] | 72.2 | 80.6 | 100 to 500 |
| CCC(F)(F)c1ccc(CC(=O)Nc2ccc(-c3nccnc3-c3ccc(C#N)cc3)cc2)cc1 [Example 16, N-(4-(3-(4-Cyanophenyl)pyrazin-2-yl)phenyl)-2-(4-(1,1-difluoropropyl)phenyl)acetamide] | 69.9 | 60.5 |  |
| CCC(F)(F)c1ccc(CC(=O)Nc2ccc(-c3nccnc3-c3ccncc3)cc2)cc1 [Example 17, 2-(4-(1,1-Difluoropropyl)phenyl)-N-(4-(3-(pyridin-4-yl)pyrazin-2-yl)phenyl)acetamide] | 60.5 | 74.4 |  |
| CC(O)C(F)(F)c1ccc(CC(=O)Nc2ccc(-c3nccnc3N3CCC(F)(F)CC3)cc2)cc1 (centres unmarked) [Example 18, 2-(4-(1,1-Difluoro-2-hydroxypropyl)phenyl)-N-(4-(3-(4,4-difluoropiperidin-1-yl)pyrazin-2-yl)phenyl)acetamide] | 32.4 | 71.2 |  |
| CC(O)C(F)(F)c1ccc(CC(=O)Nc2ccc(-c3nccnc3N3CCOCC3)cc2)cc1 (centres unmarked) [Example 19, 2-(4-(1,1-Difluoro-2-hydroxypropyl)phenyl)-N-(4-(3-morpholinopyrazin-2-yl)phenyl)acetamide] | 42.2 | 48.8 |  |
| CCC(F)(F)c1ccc(CC(=O)Nc2ccc(-n3nc(C)cc3-c3ccc(F)cc3)cc2)cc1 [Example 20, 2-(4-(1,1-Difluoropropyl)phenyl)-N-(4-(5-(4-fluorophenyl)-3-methyl-1H-pyrazol-1-yl)phenyl)acetamide] | 65.5 | 78 |  |
| CCC(F)(F)c1ccc(CC(=O)Nc2ccc(-c3cnn(C(C)(C)C)c3-c3ccc(F)cc3)cc2)cc1 [Example 21, N-(4-(1-(tert-Butyl)-5-(4-fluorophenyl)-1H-pyrazol-4-yl)phenyl)-2-(4-(1,1-difluoropropyl)phenyl)acetamide] | 37.4 | 38.3 |  |
| CC(O)C(F)(F)c1ccc(CC(=O)Nc2ccc(-c3cnn(C(C)(C)C)c3-c3ccc(F)cc3)cc2)cc1 (centres unmarked) [Example 22, N-(4-(1-(tert-Butyl)-5-(4-fluorophenyl)-1H-pyrazol-4-yl)phenyl)-2-(4-(1,1-difluoro-2-hydroxypropyl)phenyl)acetamide] | 46.7 | 56.2 |  |
| CCC(F)(F)c1ccc(CC(=O)Nc2ccc(-c3nccnc3-c3cnn(C)c3)cc2)cc1 [Example 23, 2-(4-(1,1-Difluoropropyl)phenyl)-N-(4-(3-(1-methyl-1H-pyrazol-4-yl)pyrazin-2-y1)phenyl)acetamide] | 36.6 | 68.6 |  |
| CCC(F)(F)c1ccc(CC(=O)Nc2ccc(-c3nccnc3N3CCN(C(C)=O)CC3)cc2)cc1 [Example 24, N-(4-(3-(4-Acetylpiperazin-1-yl)pyrazin-2-yl)phenyl)-2-(4-(1,1-difluoropropyl)phenyl)acetamide] | 61.6 | 83.6 |  |
| CCC(F)(F)c1ccc(CC(=O)Nc2ccc(-c3nccnc3-c3ccc(=O)n(C)c3)cc2)cc1 [Example 25, 2-(4-(1,1-Difluoropropyl)phenyl)-N-(4-(3-(1-methyl-6-oxo-1,6-dihydropyridin-3-yl)pyrazin-2-yl)phenyl)acetamide] | 18.9 | 59.7 |  |
